Results reported in PMC3071873 (Journal of medicinal chemistry, 2010).
“And” between values parts separate entries of the source, which are not always exact repeats. Equal values may be shown once.

Columns and labels:
[1] = storage in solution; oxidative or hydrolytic degradation; cited from earlier work
mouse MAO B = conditions: membrane-bound mouse MAO B; cited from earlier work
[2] = test system: toxic effect of 1-methyl-4-phenyl-tetrahydropyridine (MPTP); conditions: mice; cited from earlier work
[3] = cited from earlier work
human MAO B = molecular target: T1, human MAO B (Homo sapiens, UniProt P27338); assay: Inhibition of purified recombinant human MAO B; assay type: biochemical; conditions: versus safinamide (ref 12)
T1 sequence (P27338 1-520): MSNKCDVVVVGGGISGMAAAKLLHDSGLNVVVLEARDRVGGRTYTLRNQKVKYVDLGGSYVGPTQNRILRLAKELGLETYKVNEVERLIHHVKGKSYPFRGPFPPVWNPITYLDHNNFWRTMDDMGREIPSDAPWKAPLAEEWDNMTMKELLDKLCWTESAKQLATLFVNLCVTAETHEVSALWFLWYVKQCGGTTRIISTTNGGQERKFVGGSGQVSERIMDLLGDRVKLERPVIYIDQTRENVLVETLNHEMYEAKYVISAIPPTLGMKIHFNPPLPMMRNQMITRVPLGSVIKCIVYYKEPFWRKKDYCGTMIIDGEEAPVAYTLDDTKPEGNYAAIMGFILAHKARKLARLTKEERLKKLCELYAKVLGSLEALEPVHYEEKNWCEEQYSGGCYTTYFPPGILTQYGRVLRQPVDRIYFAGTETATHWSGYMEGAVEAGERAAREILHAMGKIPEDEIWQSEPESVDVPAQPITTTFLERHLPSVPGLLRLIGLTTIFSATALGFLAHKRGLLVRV

[4] = humans, daily dosage of 25 mg; cited from earlier work
[5] = molecular target: rat monoamine oxidase (MAO) B; conditions: weak inhibitor; cited from earlier work

NS(=O)(=O)Cc1noc2ccccc12 [Zonisamide, 1,2-benzisoxazole-3-methanesulfonamide]
stability of aged solutions [1]: lose inhibition potency on storage in solution
IC50 (mouse MAO B): 25 µM
effect on MPTP toxicity [2]: attenuates the toxic effect
brain tissue versus plasma concentrations [3]: higher in brain tissues
weaker Ki value with human MAO B compared to safinamide (human MAO B): ~ 6 fold
plasma (serum) concentration [4]: ~ 0.6 μM and 0.6 μM
Ki [5]: 660 µM
